Reference: patent publication US20230052893A1, “A SYNERGISTIC BACTERICIDE AND BACTERIOSTATIC ORGANIC SANITIZING/DISINFECTANT/CLEANING FORMULATION” (UNIVERSIDAD DE CONCEPCIÓN, priority 2020, published 2023)

Tests used:
Botrytis cinerea = experiment: Inhibition of conidia germination; assay type: cell-based; details: 24 hours
Description: (§1) In summary 100 μl of inoculum suspension was added into 96 wells in plates, using the following concentrations: 0.037-14.8% w/v acetate buffer and 0.043-17.31% w/v propionate buffer; 100 μl water (fungus) or culture medium (bacteria) and 10 μl of inoculum suspension at a final concentration of 1×10^5 UFC/ml. An incubation of 24 hours at ±25° C. was performed, assays was made by triplicate. The antimicrobial effect was evaluated as follows: B. cinerea, a germinated conidia counting was made; and P. syringae, a minimal inhibitory concentration (MIC) was firstly made through presence/absence of turbidity, and from the concentrations in absence of turbidity 100 μl was taken to be transferred to a culture medium without the antimicrobial formulation and an incubation of 24 hours at room temperature was carried out to assay the minimal bactericide concentration (MBC).

[1] = test system: E. coli ATCC 25932, L. monocytogenes ATCC 19115; Staphylococcus aureus ATCC 6538P, Salmonella enterica ATCC 13076; experiment: MIC-MBC in planktonic cells, the four pathogens together; assay type: cell-based; details: buffer used alone; range over the four pathogens; 18-20 hrs exposure
Description: The efficacy of the formulation was evaluated through minimal inhibitory concentration (MIC) and minimal bactericide concentration (MBC) against pathogens E. coli ATCC 25932, L. monocytogenes ATCC 19115; Staphylococcus aureus ATCC 6538P, Salmonella enterica ATCC 13076. […] The range of disinfectant concentrations was 0.037-5.17% w/v to acetate buffer and 0.043-6.06% w/v to propionate buffer. These concentrations are obtained from a stock solution which is diluted with filtered water.

[2] = test system: Salmonella enterica ATCC 13076 biofilm; experiment: CDC biofilm reactor, biofilm on stainless steel coupons; assay type: cell-based; details: 250 ppm, 30 minutes contact
Description: (§2) Tests on bacterial biofilms were also made to the pathogen strains, which were performed as follows: stainless steel coupons (type 316) were washed, installed on a support within a glass vessel and autoclaved at 121° C. by 20 minutes. To evaluate the disinfectant effect over a stablished biofilm to each separate bacteria, 3 ml of a concentration of 0.5 Mc Farland was inoculated within a vessel and then the same was incubated by 6, 12, 24 and 48 hours at 16° C. After each time of incubation supports containing coupons were removed and transferred to Falcon tubes of 50 ml containing the present synergistic disinfectant formulation at the following concentrations, DS1: 15% w/v (ratio acetate:propionate, 6.86:1) and DS2: 35% w/v (ratio acetate:propionate, 6.86:1). Peracetic acid was used (PAA) as control at concentrations of 250 ppm, the contact with the present synergistic disinfectant formulation or peracetic acid with supports containing biofilms was kept by 30 minutes. To perform a counting, an aliquot was taken, seeded into trypticase agar and incubated at 30° C. by 24 h, finally a counting of adhered cells was made. FIGS. 1 to 4 showing bacteria concentrations obtained to different times after 30 minutes of treatment using the above mentioned disinfectant formulations and peracetic acid as control to the following pathogens: L. monocytogenes ATCC 19115 (FIG. 1); E. coli ATCC 25932 (FIG. 2), Salmonella enterica ATCC 13076.L. (FIG. 3); and Staphylococcus aureus ATCC 6538P (FIG. 4).

[3] = test system: Staphylococcus aureus ATCC 6538P biofilm; experiment: as above; assay type: cell-based; details: 250 ppm, 30 minutes contact
Description: as §2

[4] = test system: E. coli ATCC 25932 biofilm; experiment: as above; assay type: cell-based, Escherichia coli; details: 250 ppm, 30 minutes contact
Description: as §2, with “FIGS. 1 to 4 showing bacteria concentrations obtained to different times after 30 minutes of treatment using the above mentioned disinfectant formulations and peracetic acid as control to the following pathogens: L. monocytogenes ATCC 19115 (FIG. 1); E. coli ATCC 25932 (FIG. 2), Salmonella enterica ATCC 13076.L. (FIG. 3); and Staphylococcus aureus ATCC 6538P (FIG. 4).” left out

[5] = test system: L. monocytogenes ATCC 19115 biofilm; experiment: as above; assay type: cell-based, Listeria monocytogenes; details: 250 ppm, 30 minutes contact
Description: as §2, with “FIGS. 1 to 4 showing bacteria concentrations obtained to different times after 30 minutes of treatment using the above mentioned disinfectant formulations and peracetic acid as control to the following pathogens: L. monocytogenes ATCC 19115 (FIG. 1); E. coli ATCC 25932 (FIG. 2), Salmonella enterica ATCC 13076.L. (FIG. 3); and Staphylococcus aureus ATCC 6538P (FIG. 4).” left out

[6] = test system: mesophyll aerobics and enterobacteria; experiment: Disinfectant effect on non-inoculated meats, the 3 types of meats together; details: 2.5% Sodium Acetate; different meats, during test days
Description: Assays to evaluate antimicrobial effect on the surface of beef, chicken meat and salmon meat was performed. […] The growth of bacteria Escherichia coli was allowed in a TSB culture medium by 24 h at 35° C.
Disinfecting effect on a total mesophyll aerobic and enterobacteria microorganism counting was evaluated to initial non inoculated (E. coli) meat. Also, a concentration of 10^1 UFC/g of E. coli was inoculated and then the disinfectant effect was evaluated on such pathogen microorganism counting.
Meat (beef, chicken and salmon) was purchased the same date in which the assay was arranged and was kept under storing conditions at 4° C. up to using the same. Prior to initiating assays pieces of 5 grams, pieces were randomly selected to each treatment, and a) pieces were independently inoculated with 0.2 ml of culture comprising the above mentioned bacteria by separate and 2 ml was applied to the treatments to be defined below or b) pieces were only chopped and 2 ml of treatment was applied:
Meat pieces (inoculated or non-inoculated) with its respective treatments was transferred to tubes of 50 mL under conditions of sterility and stored at 4° C. up to its final evaluation. Assays were made by triplicate.
Antimicrobial activity evaluation was performed to 0, 3, 8 and 12 post-treatment days. […] Colonies were counted at 24 and 48 hours, depending the medium to be used to the counting.

Pseudomonas syringae = experiment: MIC and MBC against agronomical pest; assay type: cell-based; details: buffer alone; 24 hours
Description: as §1

pathogen disease = experiment: Disease incidence in inoculated fruits, 21-days aged fruits (fruit not stated)
Excerpt: Fruits having similar, size, form and color and having no visual damage by fungi were selected. To perform assays a 1-2 mm deep wound was made on the selected fruit by a needle and 10^5 UFC/ml B. cinerea and Penicillium spp. (to different samples, independent test) were inoculated through the same wound under sterility conditions, fruits was not disinfected prior to the inoculation procedures. Assays was made by triplicate on 6 units submitted to visual inspection during the treatment, which were equidistantly located therebetween in Petri plates of 100×15 mm and exposed to a disinfectant treatment (Different proportions and concentrations) spraying on the fruit 0.2 ml of the different synergistic proportion of the formulation, finally an incubation at 4° C. was allowed.
Four acetate/propionate mixtures (proportions) were tested, 17.2:1, 6.86:1, 1.72:1 and 0.043:1; for each of them two or three concentrations were tested. Treatments: Treatment A/Treatment 1: 3.38% w/v mixture acetate/propionate buffers. Treatment B/Treatment 2: 11.25% w/v mixture acetate/propionate buffers. Treatment C: 25% w/v mixture acetate/propionate buffers. Treatment D/Negative Control: Fruits with wound immersed in water. […]
Assays were evaluated to days 0 (control), 7, 14 and 21, a counting of fruits showing pathogen signs was made to determined incidence. […]

CCC(=O)O [Propionate, propionate buffer]
inhibition at 2.6 % strength (Botrytis cinerea; Botrytis cinerea, Propionate 2.6 % w/v): 5.6%
inhibition at 6.06 % strength (Botrytis cinerea; Botrytis cinerea, Propionate 6.06 % w/v): 18.1%
inhibition at 8.65 % strength (Botrytis cinerea; Botrytis cinerea, Propionate 8.65 % w/v): 21.2%
Concentration needed by separate to eliminate the pathogens (MBC) [1]: 0.43-3.46 % w/v

CC(=O)OO [peracetic acid]
Elimination of biofilm ([2]; 24-hours aged biofilms): fully eliminate
Reduction of biofilm ([2]; biofilm after 6 and 12 hours): completely reduced
Elimination of biofilm ([3]; 24-hours aged biofilms): fully eliminate
Reduction of biofilm ([3]; biofilm after 6 and 12 hours): completely reduced
Elimination of biofilm ([4]; 24-hours aged biofilms): fully eliminate
Reduction of biofilm ([4]; biofilm after 6 and 12 hours): completely reduced
Elimination of biofilm ([5]; 24-hours aged biofilms): fully eliminate
Reduction of biofilm ([5]; biofilm after 6 and 12 hours): completely reduced

CC(=O)[O-].[Na+] [sodium acetate, Sodium Acetate]
Aerobic mesophilic and enterobacterial counts [6]: close to the negative control

acetate buffer
MBC (Pseudomonas syringae): 3.69 % w/v
Inhibition of germination (%) (Botrytis cinerea; Acetate 2.22 % w/v, adjusted mortality media): 0.3%
Inhibition of germination (%) (Botrytis cinerea; Acetate 5.17 % w/v): 7.4%
Inhibition of germination (%) (Botrytis cinerea; Acetate 7.4 % w/v): 8.1%
Concentration needed by separate to eliminate the pathogens (MBC) [1]: 0.74-3.69 % w/v

benzalkonium chloride
Time for which pathogen disease / incidence is inhibited (pathogen disease): 42 days
